In patent US10548317B2, “Pesticidally active pyrazole derivatives” (SYNGENTA PARTICIPATIONS AG, priority 2015, dated 2020):

How the values were obtained:
Type in all cases: in vivo
Spodoptera littoralis = Spodoptera littoralis (Egyptian cotton leaf worm) leaf disc spray test; settings: foliar, 72 h, application rate of 200 ppm, cotton leaf discs, L1 larvae, 3 days after infestation, read-out: control (at least one of mortality, anti-feedant effect, growth inhibition)
Procedure: Spodoptera littoralis (Egyptian Cotton Leaf Worm)
Cotton leaf discs were placed on agar in 24-well microtiter plates and sprayed with aqueous test solutions prepared from 10'000 ppm DMSO stock solutions. After drying the leaf discs were infested with five L1 larvae. The samples were assessed for mortality, anti-feedant effect, and growth inhibition in comparison to untreated samples 3 days after infestation. Control of Spodoptera littoralis by a test sample is when at least one of mortality, anti-feedant effect, and growth inhibition is higher than the untreated sample.

Thrips tabaci = Thrips tabaci (onion thrips) sunflower leaf disc test; settings: foliar, 144 h, application rate of 200 ppm, sunflower leaf discs, mixed ages, 6 days after infestation
Procedure: Thrips tabaci (Onion thrips):
(§1) Sunflower leaf discs were placed on agar in 24-well microtiter plates and sprayed with aqueous test solutions prepared from 10'000 ppm DMSO stock solutions. After drying the leaf discs were infested with a thrips population of mixed ages. The samples were assessed for mortality 6 days after infestation.

Euschistus heros = Euschistus heros (neotropical brown stink bug) soybean leaf test; settings: 120 h, application rate of 200 ppm, soybean leaves, N2 nymphs, 5 days after infestation, read-out: effect in at least one of the two categories (mortality or growth inhibition)
Procedure: Euschistus heros (Neotropical Brown Stink Bug)
Soybean leaves on agar in 24-well microtiter plates were sprayed with aqueous test solutions prepared from 10'000 ppm DMSO stock solutions. After drying the leaves were infested with N2 nymphs. The samples were assessed for mortality and growth inhibition in comparison to untreated samples 5 days after infestation. The following compounds gave an effect of at least 80% in at least one of the two categories (mortality or growth inhibition) at an application rate of 200 ppm: 3, 4, 5, 6, 9, 10, 12, 14, 15, 16, 17, 18, 20, 24, 27, 28, 29, 31, 32, 33, 36, 37, 38, 42, 43, 45, 50, 52, 53, 54 and 55.

Tetranychus urticae = Tetranychus urticae (two-spotted spider mite) bean leaf disc test; settings: foliar, 192 h, application rate of 200 ppm, bean leaf discs, mixed population (mobile stages), 8 days after infestation
Procedure: Tetranychus urticae (Two-Spotted Spider Mite):
as §1, with “Bean” for “Sunflower”, “discs” for “discs were placed”, “were” for “and”, “mite” for “thrips”, “on mixed population (mobile stages) 8” for “6”

Diabrotica balteata = Diabrotica balteata (corn root worm) maize sprout test; settings: 96 h, application rate of 200 ppm, maize sprouts, L2 larvae, 4 days after infestation, read-out: effect in at least one of the two categories (mortality or growth inhibition)
Procedure: Diabrotica balteata, (Corn Root Worm)
Maize sprouts, placed on an agar layer in 24-well microtiter plates were treated with aqueous test solutions prepared from 10'000 ppm DMSO stock solutions by spraying. After drying, the plates were infested with L2 larvae (6 to 10 per well). The samples were assessed for mortality and growth inhibition in comparison to untreated samples 4 days after infestation. The following compounds gave an effect of at least 80% in at least one of the two categories (mortality or growth inhibition) at an application rate of 200 ppm: 1, 3, 4, 5, 6, 7, 8, 9, 10, 11, 12, 14, 15, 16, 17, 18, 19, 20, 21, 22, 23, 24, 25, 26, 27, 28, 29, 30, 31, 32, 33, 35, 36, 37, 38, 39, 40, 41, 42, 43, 44, 45, 48, 50, 51, 52, 53, 54 and 55.

Plutella xylostella = Plutella xylostella (diamond back moth) artificial diet test; settings: 120 h, application rate of 200 ppm, L2 larvae, 5 days after infestation, read-out: effect in at least one of the two categories (mortality or growth inhibition)
Procedure: Plutella xylostella (Diamond Back Moth):
24-well microtiter plates with artificial diet were treated with aqueous test solutions prepared from 10'000 ppm DMSO stock solutions by pipetting. After drying, the plates were infested with L2 larvae (10 to 15 per well). The samples were assessed for mortality and growth inhibition in comparison to untreated samples 5 days after infestation. The following compounds gave an effect of at least 80% in at least one of the two categories (mortality or growth inhibition) at an application rate of 200 ppm: 1, 2, 3, 4, 5, 6, 7, 8, 9, 10, 11, 12, 13, 14, 15, 16, 17, 18, 19, 20, 21, 22, 23, 24, 25, 26, 27, 28, 29, 30, 31, 32, 33, 35, 36, 37, 38, 39, 40, 41, 42, 43, 44, 45, 46, 47, 48, 50, 51, 52, 53, 54 and 55.

Cn1nc(C(F)(F)C(F)(F)F)c(C(F)(F)F)c1-n1cc(-c2cc(C(=O)NC3CC3)c(Cl)s2)cn1 [Compound 3, 2-chloro-N-cyclopropyl-5-[1-[2-methyl-5-(1,1,2,2,2-pentafluoroethyl)-4-(trifluoromethyl)pyrazol-3-yl]pyrazol-4-yl]thiophene-3-carboxamide]
≥ 80%: control (mortality, anti-feedant effect or growth inhibition) at 200 ppm (Spodoptera littoralis) | mortality at 200 ppm (Thrips tabaci) | percent effect (mortality or growth inhibition) at 200 ppm (Euschistus heros) | mortality at 200 ppm (Tetranychus urticae) | percent effect (mortality or growth inhibition) at 200 ppm (Diabrotica balteata) | percent effect (mortality or growth inhibition) at 200 ppm (Plutella xylostella)

Cn1nc(C(F)(F)C(F)(F)F)c(C(F)(F)F)c1-n1cc(-c2cc(C(=O)NC3(C#N)CC3)c(Cl)s2)cn1 [Compound 4, 2-chloro-N-(1-cyanocyclopropyl)-5-[1-[2-methyl-5-(1,1,2,2,2-pentafluoroethyl)-4-(trifluoromethyl)pyrazol-3-yl]pyrazol-4-yl]thiophene-3-carboxamide]
≥ 80%: control (mortality, anti-feedant effect or growth inhibition) at 200 ppm (Spodoptera littoralis) | mortality at 200 ppm (Thrips tabaci) | percent effect (mortality or growth inhibition) at 200 ppm (Euschistus heros) | mortality at 200 ppm (Tetranychus urticae) | percent effect (mortality or growth inhibition) at 200 ppm (Diabrotica balteata) | percent effect (mortality or growth inhibition) at 200 ppm (Plutella xylostella)

Cn1nc(C(F)(F)C(F)(F)F)c(C(F)(F)F)c1-n1cc(-c2cc(C(=O)NC3(C(N)=O)CC3)c(Cl)s2)cn1 [Compound 5, N-(1-carbamoylcyclopropyl)-2-chloro-5-[1-[2-methyl-5-(1,1,2,2,2-pentafluoroethyl)-4-(trifluoromethyl)pyrazol-3-yl]pyrazol-4-yl]thiophene-3-carboxamide]
≥ 80%: control (mortality, anti-feedant effect or growth inhibition) at 200 ppm (Spodoptera littoralis) | mortality at 200 ppm (Thrips tabaci) | percent effect (mortality or growth inhibition) at 200 ppm (Euschistus heros) | mortality at 200 ppm (Tetranychus urticae) | percent effect (mortality or growth inhibition) at 200 ppm (Diabrotica balteata) | percent effect (mortality or growth inhibition) at 200 ppm (Plutella xylostella)

Cn1nc(C(F)(F)C(F)(F)F)c(C(F)(F)F)c1-n1cc(-c2cc(C(=O)NC3(C(N)=S)CC3)c(Cl)s2)cn1 [Compound 6, N-(1-carbamothioylcyclopropyl)-2-chloro-5-[1-[2-methyl-5-(1,1,2,2,2-pentafluoroethyl)-4-(trifluoromethyl)pyrazol-3-yl]pyrazol-4-yl]thiophene-3-carboxamide]
≥ 80%: control (mortality, anti-feedant effect or growth inhibition) at 200 ppm (Spodoptera littoralis) | mortality at 200 ppm (Thrips tabaci) | percent effect (mortality or growth inhibition) at 200 ppm (Euschistus heros) | mortality at 200 ppm (Tetranychus urticae) | percent effect (mortality or growth inhibition) at 200 ppm (Diabrotica balteata) | percent effect (mortality or growth inhibition) at 200 ppm (Plutella xylostella)

CN(C(=O)c1cc(-c2cnn(-c3c(C(F)(F)F)c(C(F)(F)C(F)(F)F)nn3C)c2)sc1Cl)C1(C#N)CC1 [Compound 9]
≥ 80%: control (mortality, anti-feedant effect or growth inhibition) at 200 ppm (Spodoptera littoralis) | mortality at 200 ppm (Thrips tabaci) | percent effect (mortality or growth inhibition) at 200 ppm (Euschistus heros) | mortality at 200 ppm (Tetranychus urticae) | percent effect (mortality or growth inhibition) at 200 ppm (Diabrotica balteata) | percent effect (mortality or growth inhibition) at 200 ppm (Plutella xylostella)

CCN(C(=O)c1cc(-c2cnn(-c3c(C(F)(F)F)c(C(F)(F)C(F)(F)F)nn3C)c2)sc1Cl)C1(C#N)CC1 [Compound 10]
≥ 80%: control (mortality, anti-feedant effect or growth inhibition) at 200 ppm (Spodoptera littoralis) | mortality at 200 ppm (Thrips tabaci) | percent effect (mortality or growth inhibition) at 200 ppm (Euschistus heros) | mortality at 200 ppm (Tetranychus urticae) | percent effect (mortality or growth inhibition) at 200 ppm (Diabrotica balteata) | percent effect (mortality or growth inhibition) at 200 ppm (Plutella xylostella)

Cn1nc(C(F)(F)C(F)(F)F)c(C(F)(F)F)c1-n1cc(-c2cc(C(=O)NCC(F)(F)F)c(Cl)s2)cn1 [Compound 14]
≥ 80%: control (mortality, anti-feedant effect or growth inhibition) at 200 ppm (Spodoptera littoralis) | mortality at 200 ppm (Thrips tabaci) | percent effect (mortality or growth inhibition) at 200 ppm (Euschistus heros) | percent effect (mortality or growth inhibition) at 200 ppm (Diabrotica balteata) | percent effect (mortality or growth inhibition) at 200 ppm (Plutella xylostella)

Cn1nc(C(F)(F)C(F)(F)F)c(C(F)(F)F)c1-n1cc(-c2cc(C(=O)NC3(c4ccccn4)CC3)c(Cl)s2)cn1 [Compound 15]
≥ 80%: control (mortality, anti-feedant effect or growth inhibition) at 200 ppm (Spodoptera littoralis) | percent effect (mortality or growth inhibition) at 200 ppm (Euschistus heros) | mortality at 200 ppm (Tetranychus urticae) | percent effect (mortality or growth inhibition) at 200 ppm (Diabrotica balteata) | percent effect (mortality or growth inhibition) at 200 ppm (Plutella xylostella)

Cn1nc(C(F)(F)C(F)(F)F)c(C(F)(F)F)c1-n1cc(-c2cc(C(N)=O)c(Cl)s2)cn1 [Compound 16]
≥ 80%: control (mortality, anti-feedant effect or growth inhibition) at 200 ppm (Spodoptera littoralis) | mortality at 200 ppm (Thrips tabaci) | percent effect (mortality or growth inhibition) at 200 ppm (Euschistus heros) | percent effect (mortality or growth inhibition) at 200 ppm (Diabrotica balteata) | percent effect (mortality or growth inhibition) at 200 ppm (Plutella xylostella)

CNC(=O)c1cc(-c2cnn(-c3c(C(F)(F)F)c(C(F)(F)C(F)(F)F)nn3C)c2)sc1Cl [Compound 18]
≥ 80%: control (mortality, anti-feedant effect or growth inhibition) at 200 ppm (Spodoptera littoralis) | mortality at 200 ppm (Thrips tabaci) | percent effect (mortality or growth inhibition) at 200 ppm (Euschistus heros) | percent effect (mortality or growth inhibition) at 200 ppm (Diabrotica balteata) | percent effect (mortality or growth inhibition) at 200 ppm (Plutella xylostella)

C=C(F)CNC(=O)c1cc(-c2cnn(-c3c(C(F)(F)F)c(C(F)(F)C(F)(F)F)nn3C)c2)sc1Cl [Compound 24]
≥ 80%: control (mortality, anti-feedant effect or growth inhibition) at 200 ppm (Spodoptera littoralis) | mortality at 200 ppm (Thrips tabaci) | percent effect (mortality or growth inhibition) at 200 ppm (Euschistus heros) | percent effect (mortality or growth inhibition) at 200 ppm (Diabrotica balteata) | percent effect (mortality or growth inhibition) at 200 ppm (Plutella xylostella)

Cn1nc(C(F)(F)C(F)(F)F)c(C(F)(F)F)c1-n1cc(-c2cc(C(=O)NCC=C(Cl)Cl)c(Cl)s2)cn1 [Compound 28]
≥ 80%: control (mortality, anti-feedant effect or growth inhibition) at 200 ppm (Spodoptera littoralis) | percent effect (mortality or growth inhibition) at 200 ppm (Euschistus heros) | mortality at 200 ppm (Tetranychus urticae) | percent effect (mortality or growth inhibition) at 200 ppm (Diabrotica balteata) | percent effect (mortality or growth inhibition) at 200 ppm (Plutella xylostella)

Cn1nc(C(F)(F)C(F)(F)F)c(C(F)(F)F)c1-n1cc(-c2cc(C(=O)NC3CC3F)c(Cl)s2)cn1 (stereo not shown) [Compound 32]
≥ 80%: control (mortality, anti-feedant effect or growth inhibition) at 200 ppm (Spodoptera littoralis) | mortality at 200 ppm (Thrips tabaci) | percent effect (mortality or growth inhibition) at 200 ppm (Euschistus heros) | percent effect (mortality or growth inhibition) at 200 ppm (Diabrotica balteata) | percent effect (mortality or growth inhibition) at 200 ppm (Plutella xylostella)

Cn1nc(C(F)(F)C(F)(F)F)c(C(F)(F)F)c1-n1cc(-n2cc(C(=O)NC3CC3)c(C(F)(F)F)c2)cn1 [Compound 45]
≥ 80%: control (mortality, anti-feedant effect or growth inhibition) at 200 ppm (Spodoptera littoralis) | mortality at 200 ppm (Thrips tabaci) | percent effect (mortality or growth inhibition) at 200 ppm (Euschistus heros) | percent effect (mortality or growth inhibition) at 200 ppm (Diabrotica balteata) | percent effect (mortality or growth inhibition) at 200 ppm (Plutella xylostella)

Cn1nc(OC(F)(F)C(F)C(F)(F)F)c(C(F)(F)F)c1-n1cc(-c2cc(C(=O)NC3CC3)c(Cl)s2)cn1 (stereo not shown) [Compound 53]
≥ 80%: control (mortality, anti-feedant effect or growth inhibition) at 200 ppm (Spodoptera littoralis) | percent effect (mortality or growth inhibition) at 200 ppm (Euschistus heros) | percent effect (mortality or growth inhibition) at 200 ppm (Diabrotica balteata) | percent effect (mortality or growth inhibition) at 200 ppm (Plutella xylostella)

Cn1nc(OC(F)(F)C(F)OC(F)(F)F)c(C(F)(F)F)c1-n1cc(-c2cc(C(=O)NC3(C#N)CC3)c(Cl)s2)cn1 (stereo not shown) [Compound 54]
≥ 80%: control (mortality, anti-feedant effect or growth inhibition) at 200 ppm (Spodoptera littoralis) | percent effect (mortality or growth inhibition) at 200 ppm (Euschistus heros) | percent effect (mortality or growth inhibition) at 200 ppm (Diabrotica balteata) | percent effect (mortality or growth inhibition) at 200 ppm (Plutella xylostella)

Cn1nc(OC(F)(F)C(F)OC(F)(F)F)c(C(F)(F)F)c1-n1cc(-c2cc(C(=O)NC3CC3)c(Cl)s2)cn1 (stereo not shown) [Compound 55]
≥ 80%: control (mortality, anti-feedant effect or growth inhibition) at 200 ppm (Spodoptera littoralis) | percent effect (mortality or growth inhibition) at 200 ppm (Euschistus heros) | percent effect (mortality or growth inhibition) at 200 ppm (Diabrotica balteata) | percent effect (mortality or growth inhibition) at 200 ppm (Plutella xylostella)
